Entries after “also recorded” stand apart in the source; their conditions may differ.
Columns and labels:
[1] = Thioflavin T (ThT) analysis for aggregation ability of each Aβ; assay type: physicochemical; settings: each Aβ alone, in 10 mM HEPES containing 0.9% NaCl, 37° C.; 10 μM ThT
Method: (§1) After addition of ThT (SIGMA) at a final concentration of 10 μM, each sample was transferred to a 96-well black plate (Corning) and stirred for 10 seconds, followed by measuring the fluorescence intensity for each sample. Using a fluorospectrometer (LJL Biosystems), the fluorescence intensity at a wavelength of 490 nm was measured with an excitation light of 450 nm wavelength.

Aβ42 = experiment: ELISA quantification of Aβ42 in rat fetal brain-derived nerve cell culture medium; assay type: cell-based; settings: 3 days culture; effect stated as concentration-dependent (FIGS. 7-1 to 7-3)
Method: (§2) At 4 days after initiation of culturing, the test compounds synthesized in the preceding Examples, i.e., Compound A, Compound B (CAS#501907-79-5) or Compound C (CAS#670250-40-5) were added as follows. The medium was entirely removed and replaced by Neurobasal/B27/2ME free from 2-ME (i.e., Neurobasal/B27) in a volume of 11 ml/dish. The test compounds (Compounds A, B and C) in DMSO were diluted with Neurobasal/B27 to 100-fold of their final concentration and added in a volume of 110 μl/dish, followed by sufficient mixing. The final DMSO concentration was kept at 1% or below. The control group received DMSO alone.
(§3) After addition of the test compounds, the cells were cultured for 3 days and the whole volume of the medium was collected from each dish. The resulting medium was provided as a MALDI-TOF/MS sample.
(§4) A part of each medium collected in Example 7(3) aforementioned was used as an ELISA sample. Each sample was not diluted for Aβ42 measurement, while it was diluted 5-fold for Aβ40 measurement with a diluent attached to an ELISA kit before being subjected to ELISA.
(§5) Aβ ELISA was performed using a Human Amyloid beta (1-42) Assay Kit (#17711, IBL Co., Ltd.) and a Human Amyloid beta (1-40) Assay Kit (#17713, IBL Co., Ltd.) in accordance with the kit's recommended protocol (the procedures described in the attached document), provided that a calibration curve for each Aβ was prepared using beta-amyloid peptide 1-42 (rat) or beta-amyloid peptide 1-40 (rat) (Calbiochem. #171596[Aβ4 2] or #171593[Aβ4 0]). The results were expressed as percentages (% of Control) relative to the Aβ concentration in the medium from the control group (untreated group, Control).

[2] = test system: Aβ fragments in rat fetal brain-derived nerve cell culture medium; experiment: MALDI-TOF/MS analysis of Aβ in rat fetal brain-derived nerve cell culture medium; assay type: cell-based; settings: 3 days culture with various concentrations of test compound; normalized to internal standard Aβ12-28
Method: In the same manner as shown in Example 3 above, brain cortex-derived nerve cells were prepared from Wistar rats at 18 days of embryonic age. The nerve cell suspension was diluted with a medium and seeded onto 10 cm polystyrene culture dishes pre-coated with poly-D-lysine (BIOCOAT® cell environments Poly-D-lysine cell culture dish, Becton Dickinson Labware) in a volume of 15 ml/dish so as to give an initial cell density of 3.5×10^5 cells/cm^2. After the seeded cells were cultured for 1 day in an incubator with 5% CO2, 95% air at 37° C., the medium was entirely replaced by fresh Neurobasal/B27/2ME, followed by culturing for an additional 3 days.
as §2, §3
Each sampled culture supernatant was collected in a 15 mL centrifuge tube and supplemented with 400 μL of a 25-fold concentrated solution of protease inhibitor cocktail Complete (Roche Diagnostics GmbH), followed by centrifugation at 4° C. at 3,000 rotations/minute for 5 minutes to sediment cell fragments. The resulting supernatant was transferred to another 15 mL centrifuge tube and supplemented with synthetic Aβ12-28 (Bachem) as an internal standard at a final concentration of 2 nM, followed by addition of 5 μg anti-Aβ monoclonal antibody (clone name: 4G8, Signet Laboratories, Inc). Subsequently, 5 μL of Protein G plus Protein A Agarose (Oncogene Research Products) was added after being blocked at 4° C. with 2% BSA and washed with TBS buffer. Further, 3-[(3-cholamidopropyl)dimethylammonio]-1-propanesulfonate (CHAPS; SIGMA) was added to each tube at a final concentration of 1%, followed by mixing at 4° C. for 4 to 8 hours.
The Protein G plus Protein A Agarose holding the immunoprecipitated Aβ fragments adsorbed thereto was collected from each tube by centrifugation at 4° C. at 3,000 rotations/minute for 5 minutes and transferred to a 1.5 mL microtube. The Protein G plus Protein A Agarose was washed twice with 500 μL of 140 mM NaCl, 0.1% N-Octyl Glucoside (NOG; Loche Diagnostics GmbH), 10 mM Tris-HCl, pH 8, once with 500 μL of Tris-HCl, 10 mM, pH 8, and then once with 500 μL of ion exchanged water. After washing with ion exchanged water, as much fluid as possible was removed from each tube and Aβs were eluted with 5 μL of 0.2% NOG, 2.4% trifluoroacetic acid (TFA; PIERCE) and 48.7% acetonitrile (HPLC grade, Wako Pure Chemical Industries, Ltd.). Independently of this, α-cyano-4-hydroxy-cinnamic acid (CHCA; BRUKER DALTONICS) was dissolved in 0.2% NOG, 0.1% TFA and 33% acetonitrile at a saturating concentration and supplemented with human insulin (Peptide Institute, Inc.) and angiotensin III (Peptide Institute, Inc.) as mass standards at fmal concentrations of 167 nM and 56 nM, respectively, for use as a matrix solution. Each Aβ eluate (0.5 μL) and the matrix solution (0.5 μL) were spotted at the same position on a sample plate for mass spectrometry and air-dried at room temperature, followed by analysis with a mass spectrometer Voyager DE (Applied Biosystems). All mass data detected were corrected for the mass of human insulin and angiotensin III (5807.6 and 931.1, respectively). […]

Aβ40 = experiment: ELISA quantification of Aβ40 in rat fetal brain-derived nerve cell culture medium; assay type: cell-based; settings: 3 days culture; effect stated as concentration-dependent (FIGS. 7-1 to 7-3)
Method: as §2, §3, §4, §5

Aβ1-42 [3] = target: T1, Aβ1-42 (Homo sapiens, UniProt P05067); experiment: ThT fluorescence of 1:3 mixtures of Aβ1-42 and each Aβ; assay type: biochemical; settings: Aβ1-42 mixed with the Aβ at a ratio of 1:3
T1 construct: purchased Peptide Institute, Inc. 4349-v
Method: as §1

Aβ1-42 [4] = target: T1, Aβ1-42; experiment: CD measurement on a 1:3 mixture of Aβ1-42 and each Aβ (β-sheet structure formation in Aβ1-42); assay type: biochemical; settings: 5 μM Aβ1-42 mixed with 15 μM of the Aβ (1:3)
Method: The solution was then dispensed in 10 to 30 μL aliquots into 500 μL polypropylene microtubes and stored at −80° C. until use. The Aβ solutions in HFIP were evaporated using a centrifugal evaporator (Tomy Seiko Co., Ltd., CC-180 and ST-10) to remove HFIP and then dissolved in a solution of 10 mM HEPES containing 0.9% NaCl. Each of the resulting Aβ solution was incubated at 37° C. and measured for their CD at different time points. […] The Aβ-containing solutions were injected into washed quartz cells with an optical path length of 1 or 2 mm and measured for their CD. Until measurement, the quartz cells were allowed to stand at 37° C., 100% humidity.

[5] = Circular dichroism (CD) analysis of each Aβ (secondary structure); assay type: physicochemical; settings: each Aβ alone, 37° C., until 5 days
Method: The solution was then dispensed in 10 to 30 μL aliquots into 500 μL polypropylene microtubes and stored at −80° C. until use.
The Aβ solutions in HFIP were evaporated using a centrifugal evaporator (Tomy Seiko Co., Ltd., CC-180 and ST-10) to remove HFIP and then dissolved in a solution of 10 mM HEPES containing 0.9% NaCl. Each of the resulting Aβ solution was incubated at 37° C. and measured for their CD at different time points.
The Aβ-containing solutions were injected into washed quartz cells with an optical path length of 1 or 2 mm and measured for their CD. Until measurement, the quartz cells were allowed to stand at 37° C., 100% humidity.

Aβ42 production = settings: reported in 2001 (refs 13, 14); cited from earlier work

Aβ1-42: human-type Aβ1-42 (Peptide Institute, Inc., Prod. # 4349-v); amyloid β peptide
fluorescence intensity of ThT (content of β-sheet structure) with incubation time [1]: increased with increasing incubation time

CNC(=O)n1ccc2cc(Oc3ccnc(NC(=O)N[C@H](CO)C(=O)N4CCCCC4)c3)ccc21 [Compound C, 5-{2-{3-[(1R)-1-hydroxymethyl-2-oxo-2-piperidin-1-ylethyl]ureido}pyridin-4-yloxy}-1H-indole-1-carboxylic acid methylamide]
Aβ42 production (ELISA, % of Control) (Aβ42): inhibited | Aβ1-37 or Aβ11-37 production (MALDI-TOF/MS) [2]: enhanced in a manner dependent on the concentration of Compound C | Aβ1-39 or Aβ11-39 production (MALDI-TOF/MS) [2]: enhanced in a manner dependent on the concentration of Compound C | Aβ1-40 or Aβ11-40 production (MALDI-TOF/MS) [2]: tended to be inhibited | Aβ1-42 or Aβ11-42 (peak intensity, MALDI-TOF/MS) [2]: no detectable change | Aβ40 production (ELISA, % of Control) (Aβ40): inhibited

Aβ1-40: human-type Aβ1-40 (Peptide Institute, Inc., Prod. # 4307-v); amyloid β peptide
increase in ThT fluorescence intensity (β-sheet structure formation) of Aβ1-42 compared to Aβ1-42 alone (Aβ1-42 [3]): the formation of β-sheet structure was inhibited; also recorded: the increase in the fluorescence intensity was inhibited | effect on β-sheet structure formation in Aβ1-42 (CD) (Aβ1-42 [4]): weaker than that of Aβ1-37 or Aβ1-38 | time after mixing with Aβ1-42 at which a CD spectrum indicative of β-sheet structure was detected (Aβ1-42 [4]; 37° C., Aβ1-42+buffer showed β-sheet from 1 day): 2 days | fluorescence intensity of ThT (content of β-sheet structure) with incubation time [1]: no increase in the fluorescence intensity | likelihood of forming a β-sheet structure (CD), compared with Aβ1-42 [5]: less likely to form a β-sheet structure than Aβ1-42

COc1cc(/C=C/C(=O)NCc2cccc(-c3ccccc3)c2)ccc1-n1cnc(C)c1 [Compound A, (E)-N-biphenyl-3-ylmethyl-3-[3-methoxy-4-(4-methylimidazol-1-yl)phenyl]acrylamide]
Aβ42 production (ELISA, % of Control) (Aβ42): inhibited | Aβ1-37 or Aβ11-37 production (MALDI-TOF/MS) [2]: enhanced in a manner dependent on the concentration of Compound A | Aβ1-38 or Aβ11-38 production (MALDI-TOF/MS) [2]: enhanced in a manner dependent on the concentration of Compound A | Aβ1-40 or Aβ11-40 production (MALDI-TOF/MS) [2]: inhibited in a manner dependent on the concentration of Compound A | Aβ1-42 or Aβ11-42 (peak intensity, MALDI-TOF/MS) [2]: no detectable change | Aβ40 production (ELISA, % of Control) (Aβ40): inhibited

N#Cc1ccc(NC(=O)NC(=N)Nc2ccc(Cl)cc2)cc1 [Compound B, N-{[(4-chlorophenyl)amino]iminomethyl}-N′-(4-cyanophenyl)urea]
Aβ42 production (ELISA, % of Control) (Aβ42): inhibited | Aβ1-37 or Aβ11-37 production (MALDI-TOF/MS) [2]: enhanced in a manner dependent on the concentration of Compound B | Aβ1-38 or Aβ11-38 production (MALDI-TOF/MS) [2]: enhanced in a manner dependent on the concentration of Compound B | Aβ1-40 or Aβ11-40 production (MALDI-TOF/MS) [2]: inhibited in a manner dependent on the concentration of Compound B | Aβ1-42 or Aβ11-42 (peak intensity, MALDI-TOF/MS) [2]: no detectable change | Aβ40 production (ELISA, % of Control) (Aβ40): inhibited

CC(C)Cc1ccc(C(C)C(=O)O)cc1 (stereo not shown) [ibuprofen]
effect on Aβ42 production (Aβ42 production): selectively inhibit Aβ42 production
